ChEMBL document CHEMBL4041549, “Tetrahydroisoquinoline-7-carboxamide Derivatives as New Selective Discoidin Domain Receptor 1 (DDR1) Inhibitors” (ACS Med Chem Lett, 2017)
pIC50, pKd: −log10 of the molar value. The source made the active and inactive calls. The rule behind the calls is not given here.

Experiments:
[1] = target: T1, Epithelial discoidin domain-containing receptor 1 (Homo sapiens, UniProt Q08345); assay: Inhibition of recombinant human GST-tagged DDR1 catalytic domain expressed in baculovirus expression system using Fluorescein-Poly GAT as substrate measured after 1 hr by TR-FRET assay
[2] = target: Mast/stem cell growth factor receptor Kit (Homo sapiens, UniProt P10721); assay: Inhibition of recombinant human His-tagged c-kit cytoplasmic domain (544 to 976 residues) expressed in baculovirus expression system using […] as substrate measured after 1 hr by FRET-based Z'-Lyte assay
[3] = target: T2, Discoidin domain-containing receptor 2 (Homo sapiens, UniProt Q16832); assay: Inhibition of recombinant human GST-tagged DDR2 cytoplasmic domain expressed in baculovirus expression system using Fluorescein-Poly GAT as substrate measured after 1 hr by TR-FRET assay
T2 sequence (Q16832 whole entry): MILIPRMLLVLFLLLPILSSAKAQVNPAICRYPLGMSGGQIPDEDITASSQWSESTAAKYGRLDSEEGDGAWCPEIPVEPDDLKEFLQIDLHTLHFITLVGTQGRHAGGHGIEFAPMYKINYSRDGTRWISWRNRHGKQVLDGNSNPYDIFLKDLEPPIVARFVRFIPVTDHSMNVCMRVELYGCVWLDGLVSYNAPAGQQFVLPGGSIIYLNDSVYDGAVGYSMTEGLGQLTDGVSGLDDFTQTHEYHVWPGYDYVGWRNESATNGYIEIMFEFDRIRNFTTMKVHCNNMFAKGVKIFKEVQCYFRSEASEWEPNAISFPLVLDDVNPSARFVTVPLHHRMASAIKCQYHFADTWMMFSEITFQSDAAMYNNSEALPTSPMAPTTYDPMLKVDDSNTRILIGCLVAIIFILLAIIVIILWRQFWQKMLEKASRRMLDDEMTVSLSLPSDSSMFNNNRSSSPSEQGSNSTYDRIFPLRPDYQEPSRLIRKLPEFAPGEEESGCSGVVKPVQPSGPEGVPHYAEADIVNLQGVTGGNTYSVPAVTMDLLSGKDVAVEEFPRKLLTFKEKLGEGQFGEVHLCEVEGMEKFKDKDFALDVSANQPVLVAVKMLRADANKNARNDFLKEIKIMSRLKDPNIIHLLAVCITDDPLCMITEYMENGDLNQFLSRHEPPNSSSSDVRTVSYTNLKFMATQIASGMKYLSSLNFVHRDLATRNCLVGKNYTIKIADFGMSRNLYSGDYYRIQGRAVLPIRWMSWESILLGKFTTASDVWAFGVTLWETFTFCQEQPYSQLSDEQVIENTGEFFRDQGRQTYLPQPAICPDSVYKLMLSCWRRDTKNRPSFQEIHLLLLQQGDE

Bcr/Abl fusion protein = Bcr/Abl fusion protein (Homo sapiens, UniProt P00519); assay: Inhibition of recombinant human full length His-tagged Bcr-Abl fusion protein cytoplasmic domain expressed in baculovirus expression system using tyrosine-2 as substrate measured after 1 hr by FRET-based Z'-Lyte assay
Peritoneal macrophage [4] = assay: Anti-inflammatory activity in C57BL/6 mouse primary peritoneal macrophages assessed as inhibition of LPS-induced TNF-alpha production by ELISA method; type: functional, cell-based
Mus musculus [5] = assay: Anti-inflammatory activity in LPS-induced C57BL/6 mouse acute lung injury model assessed as reduction in pathological changes at 20 to 40 mg/kg, po bid pretreated for 7 days followed LPS challenge measured after 6 hrs hematoxylin and eosin staining based microscopy; type: functional, organism-based
[6] = target: NT-3 growth factor receptor (Homo sapiens) (UniProt Q16288); assay: Binding affinity to human DNA-tagged TrkC measured after 1 hr by quantitative PCR analysis
[7] = target: T1, Epithelial discoidin domain-containing receptor 1; details: 1 uM
[8] = target: T1, Epithelial discoidin domain-containing receptor 1; assay: Binding affinity to human DNA-tagged DDR1 expressed in bacterial expression system measured after 1 hr by quantitative PCR analysis
Mus musculus [9] = assay: Anti-inflammatory activity in LPS-induced C57BL/6 mouse acute lung injury model assessed as reduction in lung wet/dry ratio at 20 to 40 mg/kg, po bid pretreated for 7 days followed by LPS challenge measured after 6 hrs; type: functional, organism-based
Peritoneal macrophage [10] = assay: Anti-inflammatory activity in C57BL/6 mouse primary peritoneal macrophages assessed as inhibition of LPS-induced IL-6 production by ELISA method; type: functional, cell-based
[11] = target: BDNF/NT-3 growth factors receptor (Homo sapiens) (UniProt Q16620); assay: Binding affinity to human DNA-tagged TrkB measured after 1 hr by quantitative PCR analysis
Mus musculus [12] = assay: Anti-inflammatory activity in po dosed LPS-induced C57BL/6 mouse acute lung injury model assessed as reduction in total protein concentration in bronchoalveolar lavage fluid pretreated for 7 days followed by LPS challenge measured after 6 hrs; type: functional, organism-based
Mus musculus [13] = assay: Anti-inflammatory activity in po dosed LPS-induced C57BL/6 mouse acute lung injury model assessed as reduction in total number of cells in bronchoalveolar lavage fluid pretreated for 7 days followed by LPS challenge measured after 6 hrs by cell counter; type: functional, organism-based

T1 sequence (Q08345 whole entry, the tested form may be a part): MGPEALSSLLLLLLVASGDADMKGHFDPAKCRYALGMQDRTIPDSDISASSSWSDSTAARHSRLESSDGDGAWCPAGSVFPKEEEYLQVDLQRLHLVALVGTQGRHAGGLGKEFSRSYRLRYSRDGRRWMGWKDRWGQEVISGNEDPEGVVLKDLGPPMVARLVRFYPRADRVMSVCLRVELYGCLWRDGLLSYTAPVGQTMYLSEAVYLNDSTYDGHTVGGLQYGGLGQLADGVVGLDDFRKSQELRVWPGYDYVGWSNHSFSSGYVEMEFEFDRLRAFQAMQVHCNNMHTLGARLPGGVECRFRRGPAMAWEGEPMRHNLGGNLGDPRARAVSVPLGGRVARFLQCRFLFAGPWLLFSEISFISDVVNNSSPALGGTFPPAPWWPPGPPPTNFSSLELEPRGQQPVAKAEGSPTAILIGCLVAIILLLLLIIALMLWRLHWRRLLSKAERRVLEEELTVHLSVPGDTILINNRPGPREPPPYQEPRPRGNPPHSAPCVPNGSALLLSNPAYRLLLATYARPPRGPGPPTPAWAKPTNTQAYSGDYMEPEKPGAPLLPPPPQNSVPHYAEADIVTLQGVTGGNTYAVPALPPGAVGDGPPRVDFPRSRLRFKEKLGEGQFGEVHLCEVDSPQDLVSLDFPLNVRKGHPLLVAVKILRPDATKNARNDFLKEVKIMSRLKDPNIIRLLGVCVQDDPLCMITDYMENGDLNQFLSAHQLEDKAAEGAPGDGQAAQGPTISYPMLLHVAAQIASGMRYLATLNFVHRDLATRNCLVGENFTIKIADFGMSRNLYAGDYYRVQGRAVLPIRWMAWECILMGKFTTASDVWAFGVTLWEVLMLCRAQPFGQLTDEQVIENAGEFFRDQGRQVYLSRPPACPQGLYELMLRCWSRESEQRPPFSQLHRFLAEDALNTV
Sequence of Mast/stem cell growth factor receptor Kit (P10721 whole entry, the tested form may be a part): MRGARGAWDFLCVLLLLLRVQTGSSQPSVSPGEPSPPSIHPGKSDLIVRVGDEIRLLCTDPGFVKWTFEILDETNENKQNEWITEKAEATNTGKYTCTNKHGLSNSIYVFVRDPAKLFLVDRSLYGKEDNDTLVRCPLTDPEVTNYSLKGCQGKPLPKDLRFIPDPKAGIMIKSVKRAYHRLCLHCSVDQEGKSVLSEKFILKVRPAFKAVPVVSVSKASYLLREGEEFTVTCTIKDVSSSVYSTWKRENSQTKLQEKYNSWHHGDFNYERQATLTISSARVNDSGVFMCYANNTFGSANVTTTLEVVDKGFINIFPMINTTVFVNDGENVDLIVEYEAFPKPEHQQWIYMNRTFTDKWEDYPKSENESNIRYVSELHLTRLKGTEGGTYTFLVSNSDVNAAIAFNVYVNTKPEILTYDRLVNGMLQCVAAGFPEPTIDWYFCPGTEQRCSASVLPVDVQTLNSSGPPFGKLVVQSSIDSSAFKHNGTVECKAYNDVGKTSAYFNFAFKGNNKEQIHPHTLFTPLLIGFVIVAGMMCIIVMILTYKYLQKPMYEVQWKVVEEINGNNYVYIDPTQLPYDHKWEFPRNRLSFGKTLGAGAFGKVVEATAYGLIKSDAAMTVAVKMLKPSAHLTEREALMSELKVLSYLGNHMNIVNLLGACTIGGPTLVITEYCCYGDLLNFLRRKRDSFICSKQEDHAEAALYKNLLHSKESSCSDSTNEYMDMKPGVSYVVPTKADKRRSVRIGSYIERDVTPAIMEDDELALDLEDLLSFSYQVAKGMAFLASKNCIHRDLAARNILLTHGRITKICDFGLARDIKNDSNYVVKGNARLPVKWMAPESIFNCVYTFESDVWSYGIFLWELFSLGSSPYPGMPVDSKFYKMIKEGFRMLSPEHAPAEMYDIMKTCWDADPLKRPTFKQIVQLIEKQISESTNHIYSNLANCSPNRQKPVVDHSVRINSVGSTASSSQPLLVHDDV
Sequence of Bcr/Abl fusion protein (P00519 whole entry, the tested form may be a part): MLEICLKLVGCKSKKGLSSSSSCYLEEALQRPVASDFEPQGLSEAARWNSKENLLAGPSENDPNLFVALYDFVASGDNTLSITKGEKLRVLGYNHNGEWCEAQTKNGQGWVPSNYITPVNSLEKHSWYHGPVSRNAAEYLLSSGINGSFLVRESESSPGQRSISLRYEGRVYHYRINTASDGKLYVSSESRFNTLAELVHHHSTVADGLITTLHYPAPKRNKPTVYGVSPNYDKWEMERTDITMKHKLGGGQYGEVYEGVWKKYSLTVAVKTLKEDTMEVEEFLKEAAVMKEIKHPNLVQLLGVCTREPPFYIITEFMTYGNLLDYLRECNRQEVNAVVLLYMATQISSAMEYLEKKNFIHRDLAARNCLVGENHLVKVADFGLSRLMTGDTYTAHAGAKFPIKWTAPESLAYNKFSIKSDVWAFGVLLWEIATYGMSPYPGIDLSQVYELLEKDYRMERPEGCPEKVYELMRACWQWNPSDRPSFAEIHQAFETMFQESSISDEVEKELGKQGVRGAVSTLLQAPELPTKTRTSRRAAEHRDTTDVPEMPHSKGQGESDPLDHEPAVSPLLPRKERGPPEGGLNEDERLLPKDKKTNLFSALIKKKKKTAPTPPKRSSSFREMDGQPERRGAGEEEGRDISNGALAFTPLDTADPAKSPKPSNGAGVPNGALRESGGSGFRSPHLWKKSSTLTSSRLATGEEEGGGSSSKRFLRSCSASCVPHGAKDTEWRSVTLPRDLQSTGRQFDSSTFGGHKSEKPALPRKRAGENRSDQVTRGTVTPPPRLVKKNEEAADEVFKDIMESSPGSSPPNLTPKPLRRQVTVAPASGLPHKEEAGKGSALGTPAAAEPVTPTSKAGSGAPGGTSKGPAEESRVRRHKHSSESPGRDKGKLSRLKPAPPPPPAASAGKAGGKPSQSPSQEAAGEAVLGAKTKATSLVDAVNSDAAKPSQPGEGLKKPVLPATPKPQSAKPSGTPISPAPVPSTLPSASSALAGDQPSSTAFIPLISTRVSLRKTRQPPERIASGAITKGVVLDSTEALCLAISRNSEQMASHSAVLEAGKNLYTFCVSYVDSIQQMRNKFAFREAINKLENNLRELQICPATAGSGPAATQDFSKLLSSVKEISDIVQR
Sequence of Bcr/Abl fusion protein (P11274 whole entry, further chain, the tested form may be a part): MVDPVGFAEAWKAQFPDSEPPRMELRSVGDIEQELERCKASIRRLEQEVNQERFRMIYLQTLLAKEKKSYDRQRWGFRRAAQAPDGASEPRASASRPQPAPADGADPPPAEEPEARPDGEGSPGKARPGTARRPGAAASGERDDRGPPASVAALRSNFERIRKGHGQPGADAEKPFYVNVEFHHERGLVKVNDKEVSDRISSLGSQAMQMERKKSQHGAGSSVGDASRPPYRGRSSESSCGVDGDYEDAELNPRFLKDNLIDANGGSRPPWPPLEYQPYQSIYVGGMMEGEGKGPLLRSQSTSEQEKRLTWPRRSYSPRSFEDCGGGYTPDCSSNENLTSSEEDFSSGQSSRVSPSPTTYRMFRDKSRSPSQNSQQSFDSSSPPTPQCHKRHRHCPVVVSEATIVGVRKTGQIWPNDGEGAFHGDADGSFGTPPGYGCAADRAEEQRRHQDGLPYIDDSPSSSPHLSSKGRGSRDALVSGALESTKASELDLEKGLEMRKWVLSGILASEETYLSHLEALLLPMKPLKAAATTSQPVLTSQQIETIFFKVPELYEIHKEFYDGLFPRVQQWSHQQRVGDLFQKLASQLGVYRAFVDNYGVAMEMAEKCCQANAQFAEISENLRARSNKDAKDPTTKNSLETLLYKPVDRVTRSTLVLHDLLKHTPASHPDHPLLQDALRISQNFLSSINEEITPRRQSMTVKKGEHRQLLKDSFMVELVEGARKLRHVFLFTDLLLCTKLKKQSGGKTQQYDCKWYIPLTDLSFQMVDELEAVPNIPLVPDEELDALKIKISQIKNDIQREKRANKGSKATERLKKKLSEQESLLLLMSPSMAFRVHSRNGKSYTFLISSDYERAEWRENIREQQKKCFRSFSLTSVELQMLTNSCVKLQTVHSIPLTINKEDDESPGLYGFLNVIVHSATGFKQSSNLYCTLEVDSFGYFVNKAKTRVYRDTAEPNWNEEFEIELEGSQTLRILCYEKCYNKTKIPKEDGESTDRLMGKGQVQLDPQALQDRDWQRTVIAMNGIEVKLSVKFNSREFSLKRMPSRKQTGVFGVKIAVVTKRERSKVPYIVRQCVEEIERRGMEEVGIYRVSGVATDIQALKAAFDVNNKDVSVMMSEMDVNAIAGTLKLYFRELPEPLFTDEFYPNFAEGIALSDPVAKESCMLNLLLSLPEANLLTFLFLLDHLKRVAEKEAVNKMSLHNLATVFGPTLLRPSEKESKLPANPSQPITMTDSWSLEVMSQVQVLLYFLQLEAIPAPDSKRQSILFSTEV
Sequence of BDNF/NT-3 growth factors receptor (Homo sapiens) (Q16620 32-822 limits assumed): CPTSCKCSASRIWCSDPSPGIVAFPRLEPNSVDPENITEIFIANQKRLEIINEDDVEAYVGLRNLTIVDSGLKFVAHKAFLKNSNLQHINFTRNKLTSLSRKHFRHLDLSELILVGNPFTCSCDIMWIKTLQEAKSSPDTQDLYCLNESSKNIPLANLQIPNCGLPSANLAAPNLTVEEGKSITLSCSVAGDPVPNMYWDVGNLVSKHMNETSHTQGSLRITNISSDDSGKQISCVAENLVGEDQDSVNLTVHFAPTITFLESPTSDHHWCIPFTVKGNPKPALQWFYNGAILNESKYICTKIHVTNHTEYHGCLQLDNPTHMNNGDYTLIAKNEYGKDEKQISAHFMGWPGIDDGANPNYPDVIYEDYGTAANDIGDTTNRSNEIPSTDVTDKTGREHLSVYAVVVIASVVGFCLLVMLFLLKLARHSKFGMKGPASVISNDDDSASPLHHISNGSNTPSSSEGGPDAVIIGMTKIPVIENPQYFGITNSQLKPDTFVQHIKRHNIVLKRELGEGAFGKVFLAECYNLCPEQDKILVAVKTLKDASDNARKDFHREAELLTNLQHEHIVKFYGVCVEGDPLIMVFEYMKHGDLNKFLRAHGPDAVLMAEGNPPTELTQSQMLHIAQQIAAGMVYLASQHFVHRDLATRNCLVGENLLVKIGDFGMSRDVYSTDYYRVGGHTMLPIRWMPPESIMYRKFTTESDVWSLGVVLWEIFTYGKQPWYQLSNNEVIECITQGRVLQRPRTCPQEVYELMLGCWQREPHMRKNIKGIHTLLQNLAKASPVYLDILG

Compound	pIC50 [1]	pIC50 [2]	pIC50 [3]	pIC50 (Bcr/Abl fusion protein)	further results
C[C@@H]1CN(c2cncnc2)Cc2cc(C(=O)Nc3cc(CN4CCCN(C)CC4)cc(C(F)(F)F)c3)ccc21	6.78	< 5.00	5.59	< 5.00	–
CC1CN(c2cncnc2)Cc2cc(C(=O)Nc3cc(C(F)(F)F)ccc3CN3CCN(C)CC3)ccc21 (stereo unspecified)	5.00	< 5.00	< 5.00	< 5.00	–
C[C@H]1CN(c2cncnc2)Cc2cc(C(=O)Nc3cc(CN4CCN(C)CC4)cc(C(F)(F)F)c3)ccc21	–	< 5.00	–	–	–
CN1CCN(Cc2cc(NC(=O)c3ccc4c(c3)CN(c3cncnc3)CC4(C)C)cc(C(F)(F)F)c2)CC1	–	< 5.00	–	< 5.00	–
CCN1CCN(Cc2cc(NC(=O)c3ccc4c(c3)CN(c3cncnc3)CC4C)cc(C(F)(F)F)c2)CC1 (stereo unspecified)	7.15	< 5.00	6.03	< 5.00	–
CCc1ccc(C(=O)Nc2cc(CN3CCN(C)CC3)cc(C(F)(F)F)c2)cc1C#Cc1ccc2ccnn2c1	7.88	5.60	6.69	6.38	–
CC1CN(c2cncnc2)Cc2cc(C(=O)Nc3cc(CN4CCOCC4)cc(C(F)(F)F)c3)ccc21 (stereo unspecified)	–	< 5.00	–	< 5.00	–
CN1CCN(Cc2cc(NC(=O)c3ccc4c(c3)CN(Cc3cncnc3)CC4)cc(C(F)(F)F)c2)CC1	< 5.00	< 5.00	< 5.00	< 5.00	–
CN1CCN(Cc2cc(NC(=O)c3ccc4c(c3)CN(c3cncnc3)CC4)cc(C(F)(F)F)c2)CC1	–	< 5.00	–	–	–
C[C@H]1CN(c2cncnc2)Cc2cc(C(=O)Nc3cc(CN4CCCN(C)CC4)cc(C(F)(F)F)c3)ccc21	8.18	< 5.00	6.59	5.09	inhibition (Peritoneal macrophage [4]): Dose-dependent effect; Activity (Mus musculus [5]): Active; Activity [6]: Active; inhibition [7]: 99.9%; pKd [8]: 8.66; Activity (Mus musculus [9]): Active; inhibition (Peritoneal macrophage [10]): Dose-dependent effect; Activity [11]: Active; Activity (Mus musculus [12]): Dose-dependent effect; Activity (Mus musculus [13]): Dose-dependent effect
CN1CCN(Cc2cc(NC(=O)c3ccc4c(c3)CN(c3ccncn3)CC4)cc(C(F)(F)F)c2)CC1	< 5.00	< 5.00	< 5.00	< 5.00	–
CC1CN(c2cncnc2)Cc2cc(C(=O)Nc3cc(N4CCN(C)CC4)cc(C(F)(F)F)c3)ccc21 (racemic)	–	< 5.00	5.68	< 5.00	–
CCc1cc(CN2CCN(C)CC2)cc(NC(=O)c2ccc3c(c2)CN(c2cncnc2)CC3C)c1 (racemic)	–	< 5.00	–	< 5.00	–
CC1CN(c2cncnc2)Cc2cc(C(=O)Nc3cc(CN4CCN(C)CC4)cc(C4CC4)c3)ccc21 (racemic)	–	< 5.00	–	5.00	–
CC1CN(c2cncnc2)Cc2cc(C(=O)Nc3cc(CN4CCSCC4)cc(C(F)(F)F)c3)ccc21 (racemic)	–	< 5.00	–	< 5.00	–
CC1CN(c2cncnc2)Cc2cc(C(=O)Nc3cc(CN4CCCC4)cc(C(F)(F)F)c3)ccc21 (racemic)	–	< 5.00	5.59	< 5.00	–

Compound	pIC50 [1]	pIC50 [2]	pIC50 [3]	pIC50 (Bcr/Abl fusion protein)	further results
CC1CN(c2cncnc2)Cc2cc(C(=O)Nc3cc(CN4CCN(C)CC4)cc(-c4ccccc4)c3)ccc21 (racemic)	–	< 5.00	–	5.00	–
CC1CN(c2cncnc2)Cc2cc(C(=O)Nc3cc(CN4CCCN(C)CC4)cc(C(F)(F)F)c3)ccc21 (racemic)	–	< 5.00	–	< 5.00	–
CC1CN(c2cncnc2)Cc2cc(C(=O)Nc3cc(CN4CCN(C)CC4)cc(C(C)(C)C)c3)ccc21 (racemic)	–	< 5.00	–	5.37	–
CC1CN(c2cncnc2)Cc2cc(C(=O)Nc3cc(CN4CCN(C)CC4)cc(C4CCCCC4)c3)ccc21 (racemic)	6.91	< 5.00	–	< 5.00	–
CC1CN(c2cncnc2)Cc2cc(C(=O)Nc3cccc(CN4CCN(C)CC4)c3)ccc21 (racemic)	< 5.00	< 5.00	< 5.00	< 5.00	–
CC1CN(c2cncnc2)Cc2cc(C(=O)Nc3cccc(C(F)(F)F)c3)ccc21 (racemic)	–	< 5.00	–	< 5.00	–
CC1CN(c2cncnc2)Cc2cc(C(=O)Nc3cc(CN(C)C)cc(C(F)(F)F)c3)ccc21 (racemic)	–	< 5.00	–	< 5.00	–
CC1CN(c2cncnc2)Cc2cc(C(=O)Nc3cc(CN4CCN(C)CC4)cc(C(F)(F)F)c3)ccc21 (racemic)	–	< 5.00	–	–	–
CC1CN(c2cncnc2)Cc2cc(C(=O)Nc3cc(CN4CCCCC4)cc(C(F)(F)F)c3)ccc21 (racemic)	–	< 5.00	–	< 5.00	–
CC1CN(c2cncnc2)Cc2cc(C(=O)Nc3ccc(CN4CCN(C)CC4)c(C(F)(F)F)c3)ccc21 (racemic)	–	< 5.00	6.45	6.26	–
CC(C)c1cc(CN2CCN(C)CC2)cc(NC(=O)c2ccc3c(c2)CN(c2cncnc2)CC3C)c1 (racemic)	7.30	< 5.00	6.17	5.06	–
CC1Cc2ccc(C(=O)Nc3cc(CN4CCN(C)CC4)cc(C(F)(F)F)c3)cc2CN1c1cncnc1 (racemic)	–	< 5.00	–	< 5.00	–
CC1CN(c2cncnc2)Cc2cc(C(=O)Nc3cc(CCN4CCN(C)CC4)cc(C(F)(F)F)c3)ccc21 (racemic)	7.09	< 5.00	5.82	< 5.00	–
CC1CN(c2cncnc2)Cc2cc(C(=O)Nc3cc(CN4CCN(C5CCCCC5)CC4)cc(C(F)(F)F)c3)ccc21 (racemic)	–	< 5.00	6.07	< 5.00	–
CC1CN(c2cncnc2)Cc2cc(NC(=O)Nc3cc(CN4CCN(C)CC4)cc(C(F)(F)F)c3)ccc21 (racemic)	< 5.00	< 5.00	< 5.00	< 5.00	–
